Target: T1, CCR2 (Homo sapiens, UniProt P41597)
T1 construct: host or cells: THP-1 (human monocytic cell line)
Assay: MCP-1 Receptor Binding Assay in THP-1 Cells
Details: read-out: MCP1B_v3 IC50
Experimental: Compounds of the invention were subjected to various representative biological tests. […] MCP-1 Receptor Binding Assay in THP-1 Cells Human monocytic cell line THP-1 cells were obtained from American Type Culture Collection (Manassas, Va., USA). The THP-1 cells were grown in RPMI-1640 (RPMI: Roswell Park Memorial Institute Medium-cell culture growth media) supplemented with 10% fetal bovine serum in a humidified 5% CO2 atmosphere at 37° C. The cell density was maintained between […].
THP-1 (cells were incubated with 0.5 nM ^125I labeled MCP-1 (Perkin-Elmer Life Sciences, Inc. Boston, Mass.) in the presence of varying concentrations of either unlabeled MCP-1 (R & D Systems, Minneapolis, Minn.) or test compound for 2 hours at 30° C. in a 96 well plate. Cells were then harvested onto a filter plate, dried, and 20 μL of Microscint 20 was added to each well. Plates were counted in a TopCount NXT, Microplate Scintillation & Luminescence Counter (Perkin-Elmer Life Sciences, Inc. Boston, Mass.). Blank values (buffer only) were subtracted from all values and drug treated values were compared to vehicle treated values. 1 μM cold MCP-1 was used for nonspecific binding.

T1 sequence (P41597 whole entry): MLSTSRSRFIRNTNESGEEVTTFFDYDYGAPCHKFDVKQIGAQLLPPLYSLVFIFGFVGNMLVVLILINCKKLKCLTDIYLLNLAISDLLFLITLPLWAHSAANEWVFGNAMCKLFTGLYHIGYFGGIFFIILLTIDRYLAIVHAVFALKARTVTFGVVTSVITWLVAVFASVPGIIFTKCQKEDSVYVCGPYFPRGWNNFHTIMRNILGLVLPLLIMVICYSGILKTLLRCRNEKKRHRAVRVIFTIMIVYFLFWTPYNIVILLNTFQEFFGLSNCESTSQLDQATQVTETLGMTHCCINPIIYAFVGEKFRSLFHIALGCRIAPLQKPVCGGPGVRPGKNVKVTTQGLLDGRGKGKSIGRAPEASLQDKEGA

| SMILES | IC50 |
| --- | --- |
| COC1COCCC1N[C@@H]1C[C@H]2CN(C(=O)NCc3ccccc3)C[C@@]2(C(=O)N2CCc3ncc(C(F)(F)F)cc3C2)C1 (relative stereo) [Example 17, (3aR,5R,6aR)-N-benzyl-5-(((3S*,4S*)-(3-methoxytetrahydro-2H-pyran-4-yl)amino)-3a-(3-(trifluoromethyl)-5,6,7,8-tetrahydro-1,6-naphthyridine-6-carbonyl)hexahydrocyclopenta-[c]pyrrole-2(1H)-carboxamide] | 60 nM |
| COC1COCCC1N[C@@H]1C[C@H]2CN(/C(N)=N\C#N)C[C@@]2(C(=O)N2CCc3ncc(C(F)(F)F)cc3C2)C1 (relative stereo) [Example 115, (3aR,5R,6aR,E)-N′-Cyano-5-(((3S*,4S*)-3-methoxytetrahydro-2H-pyran-4-yl)amino)-3a-(3-(trifluoromethyl)-5,6,7,8-tetrahydro-1,6-naphthyridine-6-carbonyl)hexahydrocyclopenta-[c]pyrrole-2(1H)-carboximidamide] | 40 nM |
| CO[C@H]1COCC[C@H]1N[C@@H]1C[C@H]2CN(C(N)=O)C[C@@]2(C(=O)N2CCc3ncc(C(F)(F)F)cc3C2)C1 [Example 4] | 40 nM |
| COC1COCCC1N[C@@H]1C[C@H]2CN(C(=O)c3ccccc3)C[C@@]2(C(=O)N2CCc3ncc(C(F)(F)F)cc3C2)C1 (relative stereo) [Example 69, ((3aR,5R,6aR)-2-Benzoyl-5-(((3S*,4S*)-3-methoxytetrahydro-2H-pyran-4-yl)amino)-octahydrocyclopenta[c]pyrrol-3a-yl)(3-(trifluoromethyl)-7,8-dihydro-1,6-naphthyridin-6(5H)-yl)methanone] | 150 nM |
| COC1COCCC1N[C@@H]1C[C@H]2CN(C3=NCCO3)C[C@@]2(C(=O)N2CCc3ncc(C(F)(F)F)cc3C2)C1 (relative stereo) [Example 113, ((3aR,5R,6aR)-2-(4,5-Dihydrooxazol-2-yl)-5-(((3S*,4S*)-3-methoxytetrahydro-2H-pyran-4-yl)amino)octahydrocyclopenta[c]pyrrol-3a-yl)(3-(trifluoromethyl)-7,8-dihydro-1,6-naphthyridin-6(5H)-yl)methanone] | 100 nM |
| COC1COCCC1N[C@@H]1C[C@H]2CN(C(=O)CNC(=O)OC(C)(C)C)C[C@@]2(C(=O)N2CCc3ncc(C(F)(F)F)cc3C2)C1 (relative stereo) [Example 87, tert-Butyl (2-((3aR,5R,6aR)-5-(((3S*,4S*)-3-methoxytetrahydro-2H-pyran-4-yl)amino)-3a-(3-(trifluoromethyl)-5,6,7,8-tetrahydro-1,6-naphthyridine-6-carbonyl)hexahydrocyclopenta[c]pyrrol-2(1H)-yl)-2-oxoethyl)carbamate] | 360 nM |
| COC1COCCC1N[C@@H]1C[C@H]2CN(Cc3ccccc3)C[C@@]2(C(=O)N2CCc3ncc(C(F)(F)F)cc3C2)C1 (relative stereo) [Example 101, ((3aR,5R,6aR)-2-Benzyl-5-(((3S*,4S*)-3-methoxytetrahydro-2H-pyran-4-yl)amino)octahydrocyclopenta[c]pyrrol-3a-yl)(3-(trifluoromethyl)-7,8-dihydro-1,6-naphthyridin-6(5H)-yl)methanone] | 370 nM |
| CCCOC(=O)N1C[C@@H]2C[C@@H](NC3CCOCC3OC)C[C@]2(C(=O)N2CCc3ncc(C(F)(F)F)cc3C2)C1 (relative stereo) [Example 35, (3aR,5R,6aR)-Propyl 5-(((3S*,4S*)-3-methoxytetrahydro-2H-pyran-4-yl)amino)-3a-(3-(trifluoromethyl)-5,6,7,8-tetrahydro-1,6-naphthyridine-6-carbonyl)hexahydro-cyclopenta[c]pyrrole-2(1H)-carboxylate] | 60 nM |
| COc1cccc(COC(=O)N2C[C@@H]3C[C@@H](NC4CCOCC4OC)C[C@]3(C(=O)N3CCc4ncc(C(F)(F)F)cc4C3)C2)c1 (relative stereo) [Example 60, (3aR,5R,6aR)-3-Methoxybenzyl 5-(((3S*,4S*)-3-methoxytetrahydro-2H-pyran-4-yl)amino)-3a-(3-(trifluoromethyl)-5,6,7,8-tetrahydro-1,6-naphthyridine-6-carbonyl)hexahydrocyclopenta-[c]pyrrole-2(1H)-carboxylate] | 100 nM |
| COC1COCCC1N[C@@H]1C[C@H]2CN(C(=S)NCC(C)C)C[C@@]2(C(=O)N2CCc3ncc(C(F)(F)F)cc3C2)C1 (relative stereo) [Example 29, (3aR,5R,6aR)-N-Isobutyl-5-(((3S*,4S*)-3-methoxytetrahydro-2H-pyran-4-yl)amino)-3a-(3-(trifluoromethyl)-5,6,7,8-tetrahydro-1,6-naphthyridine-6-carbonyl)hexahydrocyclopenta[c]pyrrole-2(1H)-carbothioamide] | 30 nM |

Continued by falling IC50, values first:

| IC50 | SMILES |
| --- | --- |
| 5060 nM | COCCN[C@@H]1C[C@H]2CN(C(N)=O)C[C@@]2(C(=O)N2CCc3ncc(C(F)(F)F)cc3C2)C1 [Example 7] |
| 390 nM | COc1ccc(COC(=O)N2C[C@@H]3C[C@@H](NC4CCOCC4OC)C[C@]3(C(=O)N3CCc4ncc(C(F)(F)F)cc4C3)C2)cc1 (relative stereo) [Example 61, (3aR,5R,6aR)-4-Methoxybenzyl 5-(((3S*,4S*)-3-methoxytetrahydro-2H-pyran-4-yl)amino)-3a-(3-(trifluoromethyl)-5,6,7,8-tetrahydro-1,6-naphthyridine-6-carbonyl)hexahydrocyclopenta-[c]pyrrole-2(1H)-carboxylate] |
| 270 nM | COC1COCCC1N[C@@H]1C[C@H]2CN(c3nc(C)no3)C[C@@]2(C(=O)N2CCc3ncc(C(F)(F)F)cc3C2)C1 (relative stereo) [Example 111, ((3aR,5R,6aR)-5-(((3S*,4S*)-3-Methoxytetrahydro-2H-pyran-4-yl)amino)-2-(3-methyl-1,2,4-oxadiazol-5-yl)octahydrocyclopenta[c]pyrrol-3a-yl)(3-(trifluoromethyl)-7,8-dihydro-1,6-naphthyridin-6(5H)-yl)methanone] |
| 200 nM | C#CCOC(=O)N1C[C@@H]2C[C@@H](NC3CCOCC3OC)C[C@]2(C(=O)N2CCc3ncc(C(F)(F)F)cc3C2)C1 (relative stereo) [Example 53, (3aR,5R,6aR)-Prop-2-yn-1-yl 5-(((3S*,4S*)-3-methoxytetrahydro-2H-pyran-4-yl)amino)-3a-(3-(trifluoromethyl)-5,6,7,8-tetrahydro-1,6-naphthyridine-6-carbonyl)hexahydrocyclopenta[c]pyrrole-2(1H)-carboxylate] |
| 120 nM | COC1COCCC1N[C@@H]1C[C@H]2CN(c3ccccc3)C[C@@]2(C(=O)N2CCc3ncc(C(F)(F)F)cc3C2)C1 (relative stereo) [Example 108, ((3aR,5R,6aR)-5-(((3S*,4S*)-3-Methoxytetrahydro-2H-pyran-4-yl)amino)-2-phenyloctahydrocyclopenta[c]pyrrol-3a-yl)(3-(trifluoromethyl)-7,8-dihydro-1,6-naphthyridin-6(5H)-yl)methanone] |
| 10 nM | CO[C@@H]1COCC[C@@H]1N[C@@H]1C[C@H]2CN(C(=O)/C=C/c3ccc(C(=O)O)cc3)C[C@@]2(C(=O)N2CCc3ccc(C(F)(F)F)cc3C2)C1 (relative stereo) [Example 89, 4-((E)-3-((3aR,5R,6aR)-5-(((3S*,4S*)-3-methoxytetrahydro-2H-pyran-4-yl)amino)-3a-(7-(trifluoromethyl)-1,2,3,4-tetrahydroisoquinoline-2-carbonyl)hexahydrocyclopenta-[c]pyrrol-2(1H)-yl)-3-oxoprop-1-en-1-yl)benzoic acid] |
